Assay results published in PubChem BioAssay AID328 (DTP/NCI, 2004).
Where “and” joins values, the source holds several entries; their conditions need not be identical. Equal entries are not always repeated. Inconclusive results and toxic doses are left out.

System: BDF1 mice, P388 leukemia ip, median survival T/C
Experiment: NCI In Vivo Anticancer Drug Screen. Data for tumor model P388 Leukemia (intraperitoneal) in B6D2F1 (BDF1) mice
Settings: endpoint: median survival time, higher = longer survival
Procedure, shortened: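 Survival ratio, drug arm over vehicle arm, in mice with a transplanted tumour.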

[1] = dose: 100.0 mg/kg/injection, schedule: Q01DX009 (ip), vehicle: saline with Tween-80
[2] = dose: 100.0 mg/kg/injection, schedule: Q04DX003 (ip), vehicle: saline with Tween-80
[3] = dose: 200.0 mg/kg/injection, schedule: Q01DX009 (ip), vehicle: saline with Tween-80
[4] = dose: 200.0 mg/kg/injection, schedule: Q04DX003 (ip), vehicle: saline with Tween-80
[5] = dose: 100.0 mg/kg/injection, schedule: Q01DX009 (ip), vehicle: saline
[6] = dose: 6.25 mg/kg/injection, schedule: Q01DX009 (ip), vehicle: Klucel (hydroxypropylcellulose) (HPC)
[7] = dose: 12.5 mg/kg/injection, schedule: Q01DX009 (ip), vehicle: Klucel (hydroxypropylcellulose) (HPC)
[8] = dose: 25.0 mg/kg/injection, schedule: Q01DX009 (ip), vehicle: Klucel (hydroxypropylcellulose) (HPC)
[9] = dose: 100.0 mg/kg/injection, schedule: Q01DX009 (ip), vehicle: Klucel (hydroxypropylcellulose) (HPC)
[10] = dose: 100.0 mg/kg/injection, schedule: Q04DX003 (ip), vehicle: Klucel (hydroxypropylcellulose) (HPC)
[11] = dose: 200.0 mg/kg/injection, schedule: Q04DX003 (ip), vehicle: Klucel (hydroxypropylcellulose) (HPC)
[12] = dose: 400.0 mg/kg/injection, schedule: Q04DX003 (ip), vehicle: Klucel (hydroxypropylcellulose) (HPC)

COc1cc(-c2nc3ccccc3c(=O)o2)cc(OC)c1OC
T/C (dose: 50.0 mg/kg/injection, schedule: Q01DX009 (ip), vehicle: saline with Tween-80): 105 % of control | T/C [1]: 115 % of control | T/C [2]: 100 % of control | T/C [3]: 100 % of control | T/C [4]: 100 % of control

CCCCOCN(CCCc1ccccc1)COCCCC
T/C [1]: 121 % of control

CC#CCOCC1CO1 (stereo not given)
T/C (dose: 66.0 mg/kg/injection, schedule: Q01DX009 (ip), vehicle: saline with Tween-80): 160 % of control | T/C [1]: 115 % of control | T/C (dose: 100.0 mg/kg/injection, schedule: Q04DX003 (ip), vehicle: saline): 104 % of control | T/C (dose: 200.0 mg/kg/injection, schedule: Q04DX003 (ip), vehicle: saline): 100 % of control

Cn1cc(C=O)c2nccnc21
T/C (dose: 0.78 mg/kg/injection, schedule: Q01DX009 (ip), vehicle: saline): 92 % of control | T/C (dose: 1.56 mg/kg/injection, schedule: Q01DX009 (ip), vehicle: saline): 112 % of control | T/C (dose: 6.25 mg/kg/injection, schedule: Q01DX009 (ip), vehicle: saline): 91 % of control | T/C (dose: 12.5 mg/kg/injection, schedule: Q01DX009 (ip), vehicle: saline): 86 % of control | T/C [1]: 117 % of control | T/C [5]: 108 % of control

COC(=O)/C(C)=C/C1N=C1c1ccccc1 (stereo not given)
T/C (dose: 100.0 mg/kg/injection, schedule: Q01DX001 (ip), vehicle: saline with Tween-80): 120 % of control

COc1cc2oc(-c3ccc(O)cc3O)c(CC=C(C)C)c(=O)c2c(O)c1/C=C/C(C)C
T/C (dose: 4.1 mg/kg/injection, schedule: Q01DX009 (ip), vehicle: Klucel (hydroxypropylcellulose) (HPC)): 115 % of control | T/C [6]: 106 % of control | T/C (dose: 9.3 mg/kg/injection, schedule: Q01DX009 (ip), vehicle: Klucel (hydroxypropylcellulose) (HPC)): 110 % of control | T/C [7]: 116 % of control | T/C [8]: 98 % of control | T/C (dose: 50.0 mg/kg/injection, schedule: Q01DX009 (ip), vehicle: Klucel (hydroxypropylcellulose) (HPC)): 91 % of control | T/C [9]: 94 % of control

[NH-]CC(=O)[N-]CC(=O)O.[NH-]CC(=O)[N-]CC(=O)O.[Ni]
T/C (dose: 3.0 mg/kg/injection, schedule: Q01DX009 (ip), vehicle: saline): 100 % of control | T/C (dose: 6.0 mg/kg/injection, schedule: Q01DX009 (ip), vehicle: saline): 103 % of control | T/C (dose: 12.0 mg/kg/injection, schedule: Q01DX009 (ip), vehicle: saline): 116 % of control | T/C (dose: 12.5 mg/kg/injection, schedule: Q04DX003 (ip), vehicle: saline): 104 % of control | T/C (dose: 18.0 mg/kg/injection, schedule: Q01DX009 (ip), vehicle: saline): 110 % of control | T/C (dose: 25.0 mg/kg/injection, schedule: Q04DX003 (ip), vehicle: saline): 109 % of control | T/C (dose: 50.0 mg/kg/injection, schedule: Q04DX003 (ip), vehicle: saline): 100 % of control and 118 % of control

NC(=O)c1ncc(-c2ccccc2)[nH]c1=O
T/C (dose: 50.0 mg/kg/injection, schedule: Q01DX009 (ip), vehicle: saline): 104 % of control | T/C [5]: 100 % of control | T/C (dose: 200.0 mg/kg/injection, schedule: Q01DX009 (ip), vehicle: saline): 109 % of control

NC(=O)n1cccn1
T/C (dose: 30.0 mg/kg/injection, schedule: Q01DX010 (ip), vehicle: saline): 100 % of control | T/C (dose: 50.0 mg/kg/injection, schedule: Q01DX010 (ip), vehicle: other): 104 % of control | T/C (dose: 60.0 mg/kg/injection, schedule: Q01DX010 (ip), vehicle: saline): 100 % of control | T/C (dose: 100.0 mg/kg/injection, schedule: Q01DX010 (ip), vehicle: other): 100 % of control | T/C (dose: 120.0 mg/kg/injection, schedule: Q01DX010 (ip), vehicle: saline): 109 % of control | T/C (dose: 240.0 mg/kg/injection, schedule: Q01DX010 (ip), vehicle: saline): 122 % of control

CC(=O)CC(C)=O.CC(=O)CC(C)=O.[Co]
T/C (dose: 6.25 mg/kg/injection, schedule: Q01DX009 (ip), vehicle: saline with Tween-80): 96 % of control | T/C (dose: 6.25 mg/kg/injection, schedule: Q04DX003 (ip), vehicle: saline with Tween-80): 88 % of control | T/C (dose: 12.5 mg/kg/injection, schedule: Q01DX009 (ip), vehicle: saline with Tween-80): 112 % of control | T/C (dose: 12.5 mg/kg/injection, schedule: Q04DX003 (ip), vehicle: saline with Tween-80): 92 % of control | T/C (dose: 25.0 mg/kg/injection, schedule: Q01DX009 (ip), vehicle: saline with Tween-80): 120 % of control | T/C (dose: 25.0 mg/kg/injection, schedule: Q04DX003 (ip), vehicle: saline with Tween-80): 92 % of control

CCCCC(/C=C1/CCCCC1=O)CC (stereo not given)
T/C [9]: 95 % of control | T/C [10]: 104 % of control | T/C (dose: 200.0 mg/kg/injection, schedule: Q01DX009 (ip), vehicle: Klucel (hydroxypropylcellulose) (HPC)): 87 % of control | T/C [11]: 104 % of control | T/C (dose: 400.0 mg/kg/injection, schedule: Q01DX009 (ip), vehicle: Klucel (hydroxypropylcellulose) (HPC)): 91 % of control | T/C [12]: 113 % of control

CCCCCCc1ccccc1
T/C [2]: 109 % of control | T/C [4]: 109 % of control | T/C (dose: 400.0 mg/kg/injection, schedule: Q04DX003 (ip), vehicle: saline with Tween-80): 118 % of control

CCCn1c2nc(=O)n(C)c(=O)c-2[n+]([O-])c2ccccc21
T/C (dose: 6.25 mg/kg/injection, schedule: Q01DX001 (ip), vehicle: saline with Tween-80): 101 % of control | T/C (dose: 12.5 mg/kg/injection, schedule: Q01DX001 (ip), vehicle: saline with Tween-80): 99 % of control

ClC(Cl)(Cl)C1OCOC(C(Cl)(Cl)Cl)OCO1 (stereo not given)
T/C [10]: 90 % of control | T/C [11]: 100 % of control | T/C [12]: 90 % of control

O=C1COCC(=O)C1
T/C (dose: 100.0 mg/kg/injection, schedule: Q01DX001 (ip), vehicle: saline): 96 % of control | T/C (dose: 200.0 mg/kg/injection, schedule: Q01DX001 (ip), vehicle: saline): 107 % of control | T/C (dose: 400.0 mg/kg/injection, schedule: Q01DX001 (ip), vehicle: saline): 100 % of control

O=[N+]([O-])c1ccccc1N=P(c1ccccc1)(c1ccccc1)c1ccccc1
T/C (dose: 50.0 mg/kg/injection, schedule: Q01DX009 (ip), vehicle: DMSO): 109 % of control | T/C (dose: 50.0 mg/kg/injection, schedule: Q04DX003 (ip), vehicle: DMSO): 100 % of control | T/C (dose: 100.0 mg/kg/injection, schedule: Q01DX009 (ip), vehicle: DMSO): 104 % of control | T/C (dose: 100.0 mg/kg/injection, schedule: Q04DX003 (ip), vehicle: DMSO): 104 % of control | T/C (dose: 200.0 mg/kg/injection, schedule: Q04DX003 (ip), vehicle: DMSO): 90 % of control

CN(C)CC/C=C1\c2ccccc2C(C)(C)c2ccc(Cl)cc21
T/C (dose: 6.0 mg/kg/injection, schedule: Q04DX003 (ip), vehicle: saline with Tween-80): 95 % of control | T/C [6]: 100 % of control | T/C (dose: 11.0 mg/kg/injection, schedule: Q04DX003 (ip), vehicle: saline with Tween-80): 104 % of control | T/C [7]: 111 % of control | T/C (dose: 16.5 mg/kg/injection, schedule: Q01DX009 (ip), vehicle: Klucel (hydroxypropylcellulose) (HPC)): 90 % of control and 100 % of control | T/C (dose: 22.0 mg/kg/injection, schedule: Q04DX003 (ip), vehicle: saline with Tween-80): 104 % of control | T/C [8]: 88 % of control and 100 % of control | T/C (dose: 33.0 mg/kg/injection, schedule: Q04DX003 (ip), vehicle: saline with Tween-80): 100 % of control and 104 % of control | T/C (dose: 37.5 mg/kg/injection, schedule: Q01DX009 (ip), vehicle: Klucel (hydroxypropylcellulose) (HPC)): 90 % of control and 92 % of control | T/C (dose: 50.0 mg/kg/injection, schedule: Q04DX003 (ip), vehicle: saline with Tween-80): 110 % of control and 112 % of control | T/C (dose: 55.0 mg/kg/injection, schedule: Q01DX009 (ip), vehicle: Klucel (hydroxypropylcellulose) (HPC)): 95 % of control | T/C (dose: 75.0 mg/kg/injection, schedule: Q04DX003 (ip), vehicle: saline with Tween-80): 115 % of control and 120 % of control | T/C (dose: 85.0 mg/kg/injection, schedule: Q01DX009 (ip), vehicle: Klucel (hydroxypropylcellulose) (HPC)): 87 % of control | T/C (dose: 125.0 mg/kg/injection, schedule: Q01DX009 (ip), vehicle: Klucel (hydroxypropylcellulose) (HPC)): 95 % of control

COc1cccc(CCNC(=O)CCN2C(=O)c3ccccc3C2=O)c1
T/C [1]: 95 % of control | T/C [3]: 109 % of control | T/C (dose: 400.0 mg/kg/injection, schedule: Q01DX009 (ip), vehicle: saline with Tween-80): 100 % of control
